In doi:10.1101/2021.11.16.468530v1 (biorxiv, 2021):

Biological target: T1, human topoisomerase I (TOP1) (Homo sapiens, UniProt P11387)
T1 sequence (P11387 2-765): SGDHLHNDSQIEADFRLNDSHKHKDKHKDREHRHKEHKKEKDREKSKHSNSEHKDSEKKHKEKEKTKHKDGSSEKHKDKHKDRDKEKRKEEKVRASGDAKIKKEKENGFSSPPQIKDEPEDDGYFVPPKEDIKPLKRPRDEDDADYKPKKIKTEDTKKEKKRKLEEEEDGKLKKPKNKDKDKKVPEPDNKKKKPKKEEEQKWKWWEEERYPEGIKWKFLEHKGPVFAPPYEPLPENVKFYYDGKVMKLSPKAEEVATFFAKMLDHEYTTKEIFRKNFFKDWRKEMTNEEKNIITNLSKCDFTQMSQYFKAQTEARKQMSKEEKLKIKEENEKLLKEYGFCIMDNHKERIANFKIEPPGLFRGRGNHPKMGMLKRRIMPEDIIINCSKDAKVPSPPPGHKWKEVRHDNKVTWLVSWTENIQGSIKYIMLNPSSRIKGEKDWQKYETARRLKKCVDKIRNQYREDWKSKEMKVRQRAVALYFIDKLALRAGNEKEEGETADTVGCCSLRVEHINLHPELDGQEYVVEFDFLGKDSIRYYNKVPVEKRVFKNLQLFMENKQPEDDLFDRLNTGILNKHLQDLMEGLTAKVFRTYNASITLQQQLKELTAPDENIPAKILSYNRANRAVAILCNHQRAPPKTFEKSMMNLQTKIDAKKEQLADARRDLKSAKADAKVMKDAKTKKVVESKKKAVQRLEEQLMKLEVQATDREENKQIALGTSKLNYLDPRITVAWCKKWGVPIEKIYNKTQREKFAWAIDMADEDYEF
Assay: supercoiled plasmid DNA relaxation, agarose gel
Format: biochemical

| IC50 [µM] | Compound |
| --- | --- |
| 0.89 | O=C(Nc1ccc(Sc2ccc(N=Nc3c(O)c(S(=O)(=O)O)cc4cc(S(=O)(=O)O)ccc34)cc2)cc1)c1ccc(N=Nc2c(O)c(S(=O)(=O)O)cc3cc(S(=O)(=O)O)ccc23)cc1 [NSC65860] |
| ~10 | O=c1c(O)c(-c2cc(O)c(O)c(O)c2)oc2cc(O)cc(O)c12 [myricetin] |
